The values below come from patent US12263349B2, “Method of treatment of biological surfaces” (Koite Health Oy, priority 2018, dated 2025).

Entries after “also recorded” stand apart in the source; their conditions may differ.

Assay [1] has as its system Streptococcus mutans biofilm. The experiment in a line: Streptococcus mutans monospecies biofilm model, PDT with indocyanine green, viability by serial dilution CFU. The assay is classed as cell-based, Streptococcus mutans (ATCC 25175). As for the experimental part:
In a third series of test, the adaptability of Streptococcus mutans biofilms to multi and single wavelength PDT treatments, respectively, was compared.
Two separate monospecies biofilm model experiments were performed to study the effect of reoccurring photodynamic therapy on biofilm formation. The Streptococcus mutans biofilm experiments were divided in different classes based on biofilm age and the therapy given.
The one-time PDT treatment was performed for 1 day, 2 days and 4 days old biofilms. […] The viability of the bacteria was assessed by serial dilution CFU method which was performed after the last photodynamic therapy treatment.
Streptococcus mutans (ATCC 25175) bacteria was grown over 18 h in growth chamber (36° C., 5% CO2) in BHI-broth (Bio-Rad 3564014). The resulting bacteria suspension was diluted with 0.9% NaCl suspension to optical density of 0.46.
Biofilm was grown on bottom of well plate by adding 100 μl diluted Streptococcus mutans suspension in each well with 100 μl of BHI-broth growth medium. The bacteria plate was incubated in growth chamber (36 Celsius, 5% CO2) and BHI-broth medium changed daily.
Before the light exposure, the growth medium was replaced with indocyanine green suspension which was let to incubate in dark in room temperature for 10 minutes. After the incubation the biofilm was washed twice with 0.9% NaCl solution. The treatment time was calculated from desired light amount and known intensity.
The light exposure was performed by placing the well plate under known LED light source. The given light intensity was analyzed with Thorlabs PM100D and S121C sensor head. Treatment time was changed to result in desired light amount. […]
The first experiment of continuous treatment of Streptococcus biofilm with PDT was completed by using 250 μg/ml ICG with 810 nm light. Different age biofilms of 1 day, 2 days and 4 days were grown, and the treatment was given once to each biofilm to evaluated the effect of single time treatment to differently aged biofilms. […]

The test system of assay [2] is Streptococcus mutans. The assay can be described thus: Bacteria plate study: antibacterial effect of 405 nm light compared to PDT. The assay is classed as cell-based. The note with it: FIG. 6.
The test system of assay [3] is monospecies biofilm of Streptococcus sobrinus. The note with it: biofilm versus planktonic form; cited from earlier work.
The test system of assay [4] is Streptococcus mutans biofilm. The experiment in a line: Potentiation of chlorhexidine with dual wavelength PDT. The assay is classed as cell-based. The conditions noted are these: high and low energy photons with photosensitizer; FIG. 3. The source says: Treatment can be combined with topic use of antibiotics and disinfectants for synergist antipathogen effect. For example, the use phototherapy with chlorhexidine to target biofilms is new to oral disinfection. The results of dual wavelength photodynamic therapy with chlorhexidine against Streptococcus mutans biofilm shown in appendix III are completely new. […] The effectivity is based on photon and anionic photosensitizer ability to penetrate deeper into biofilm and provide efficient bacteria killing inside the biofilm as well as on the surface. The chlorhexidine effect is mostly present only on the surface of the biofilm. High energy photons reduce the biofilm EPS matrix formation that further increases the chlorhexidine effectivity in subsequent treatments. In a second series of tests, potentiation of chlorhexidine with dual wavelength PDT was evaluated.

As for `CC1(C)C(/C=C/C=C/C=C/C=C2\N(CCCCS(=O)(=O)O)c3ccc4ccccc4c3C2(C)C)=[N+](CCCCS(=O)(=O)[O-])c2ccc3ccccc3c21` [ICG, Indocyanine green], in assay [1] (250 μg/ml ICG with 810 nm light (single wavelength), 4 days old biofilm treated every day), the “effect of PDT treatment on biofilm (CFU), every day treated” value is “poor treatment effect; also recorded: failed to achieve strong bacteria killing”. Besides, in assay [1] (250 μg/ml ICG with 810 nm light, single treatment of 1 day, 2 days and 4 days old biofilms), the “effect of PDT treatment on biofilm (CFU), treatment given once” value is given as “strong effect of PDT treatment”. Besides, the “bacteria killing with double wavelength PDT, every day therapy versus day 4 only” value in assay [1] (ICG, 810 nm combined with 405 nm light, 4 days old biofilm) is “No significant difference of bacteria killing; also recorded: no bacteria biofilm adaptation to the treatment was observed”. Moreover, in assay [2], the “light dose resulting in complete inhibition of Streptococcus mutans growth” value came out at 4 J/cm^2.

On to amine fluoride, for which the “times greater concentration needed to kill biofilm than planktonic counterpart” value in assay [3] is 100.

In the case of `[H]/N=C(\N/C(=N/[H])NCCCCCCNC(=N)NC(=N)Nc1ccc(Cl)cc1)Nc1ccc(Cl)cc1` [chlorhexidine], the “times greater concentration needed to kill biofilm than planktonic counterpart” value in assay [3] is 100. Moreover, the “antimicrobial effect of chlorhexidine combined with multi wavelength PDT versus reference and one wavelength” value in assay [4] is recorded as “increased substantially the antibacterial effect; also recorded: much stronger effect”.
